# In BigSolDB 2.1:
Compound,"solubility (mole fraction) (in n-hexane, 293.15 K)","solubility (mole fraction) (in n-hexane, 298.15 K)","solubility (mole fraction) (in n-hexane, 303.15 K)","solubility (mole fraction) (in n-hexane, 308.15 K)","solubility (mole fraction) (in n-hexane, 313.15 K)","solubility (mole fraction) (in n-octanol, 293.15 K)","solubility (mole fraction) (in n-octanol, 298.15 K)","solubility (mole fraction) (in n-octanol, 303.15 K)","solubility (mole fraction) (in n-octanol, 308.15 K)","solubility (mole fraction) (in n-octanol, 313.15 K)"
CC12CC3CC(C)(C1)CC(NS(=O)(=O)c1ccc([N+](=O)[O-])cc1)(C3)C2,4.22e-05,5.67e-05,6.92e-05,8.55e-05,0.000105,0.00362,0.00423,0.00511,0.0058,0.00664
Cc1cc(C)c(S(=O)(=O)NC23CC4CC(CC(C4)C2)C3)c(C)c1,0.000265,0.000307,0.000366,0.000444,0.000495,0.00383,0.00452,0.00562,0.0068,0.00809
